Reference: US20260027124A1, “SUBSTITUTED IMIDAZO[1,2-A]PYRIDINE COMPOUNDS AND THE USE THEREOF IN THE TREATMENT AND PREVENTION OF FIBROSIS” (MOEXA PHARMACEUTICALS LIMITED, priority 2022, published 2026)

Tested on: TGF-β
Assay: TGFβ/SMAD Signaling Pathway SBE Reporter-HEK293 luciferase assay (inhibition of TGF-β)
Assay type: cell-based
Settings: SBE reporter-HEK293 cells, human TGFβ1 20 ng/ml; for IC50: 4 h compound pre-incubation, ~18 hours, luciferase luminescence; for inhibitory activity against TGF-β: statement in words
Experimental: Transforming TGF-β regulates the proliferation and differentiation of fibroblasts, which are the primary constituent cells of fibrous tissues. As such, representative compounds of the present disclosure were tested for their ability to inhibit TGF-β.
• 1. TGFβ/SMAD Signaling Pathway SBE Reporter—HEK293 Cell Line BPS Bioscience Catalog #: 60653 • 2. Human TGFβ1 (BPS Bioscience #90900-1) • 3. SIS3 (Sigma #S0447): inhibitor of TGFβ pathway. Prepare stock solution in DMSO. • 4. Growth medium: MEM medium (Invitrogen #11095-080)+10% FBS (ATCC #30-2020)+1% non-essential amino acids (Lonza #13-114E)+1 mM Na pyruvate (Lonza #13-115E)+1% Penicillin/Streptomycin (ATCC #30-2300)+400 μg/ml of Geneticin (Invitrogen #11811-031). • 5. Assay medium: MEM medium+0.5% FBS+1% non-essential amino acids+1 mM Na pyruvate+1% Pen/Strep • 6. 96-well tissue culture-treated white clear-bottom assay plate (Corning #3610) • 7. ONE-Step™ Luciferase Assay System (BPS, Cat. #60690)
SBE reporter-HEK293 cells were harvested from culture in growth medium and seeded at a density of ˜10,000 cells per well into a white clear-bottom 96-well microplate in 100 μl of assay medium. The plate containing cells were incubated at 37° C. in a CO2 incubator. 24 hours after seeding, cells were washed with 100 μL of assay buffer and treated with three fold serial dilution of compounds in 50 μl assay medium. Cells were incubated at 37° C. in a CO2 incubator for 4 hours. For control wells 50 μl assay medium was added with no inhibitor. Each treatment was done in triplicate. After 4 hours of incubation, 5 μl of human TGFβ1 in assay medium was added to cells (final TGFβ1 concentration=20 ng/ml). 5 μl of assay medium was added to the unstimulated control wells (for determining the basal activity). The plate with cells was incubated at 37° C. in a CO2 incubator overnight (˜18 hours). After 18 hours of incubation Luciferase assay was performed using ONE-Step™ Luciferase Assay System according to the protocol provided: 50 μl of ONE-Step™ Luciferase reagent was added per well and shook at room temperature for ˜10 minutes. Luminescence was measured using a luminometer.

SMILES | IC50 [µM] | inhibitory activity against TGF-β
COc1cc2c(cc1OC)CN(C(=O)/C=C/c1c(-c3ccc(Cl)cc3)nc3ccccn13)CC2 [Compound 6] | 5.45 | showed inhibitory activity
COc1cc2c(cc1OC)CN(C(=O)/C=C/c1c(-c3ccccc3)nc3ccc(F)cn13)C2 [Compound 10] | 4.32 | showed inhibitory activity
COc1cc2c(cc1OC)CN(C(=O)/C=C/c1c(-c3ccccc3)n(C)c3ncccc13)CC2 [SIS3, reference compound] | 2.65 | 
COc1cc2c(cc1OC)CN(C(=O)/C=C/c1c(-c3ccc(F)cc3)nc3ccccn13)C2 [Compound 11] | 3.52 | showed inhibitory activity

Results, then the molecule that gave them:

IC50 [µM] | inhibitory activity against TGF-β | SMILES
6.11 | showed inhibitory activity | COc1cc2c(cc1OC)CN(C(=O)/C=C/c1c(-c3ccccc3)nc3ccccn13)C2 [Compound 9]
3.72 | showed inhibitory activity | O=C(/C=C/c1c(-c2ccccc2)nc2ccccn12)N1CCOCC1 [Compound 8]
